# Values quoted from earlier work, collected in patent publication US10493116B2, “Longevity gene expression enhancer” (Shiseido Company, Ltd., priority 2014, dated 2019).
# Legend:
# sirtuin-1 [1] = target: T1, sirtuin-1 (Homo sapiens, UniProt Q96EB6)
# T1 sequence (Q96EB6 1-747): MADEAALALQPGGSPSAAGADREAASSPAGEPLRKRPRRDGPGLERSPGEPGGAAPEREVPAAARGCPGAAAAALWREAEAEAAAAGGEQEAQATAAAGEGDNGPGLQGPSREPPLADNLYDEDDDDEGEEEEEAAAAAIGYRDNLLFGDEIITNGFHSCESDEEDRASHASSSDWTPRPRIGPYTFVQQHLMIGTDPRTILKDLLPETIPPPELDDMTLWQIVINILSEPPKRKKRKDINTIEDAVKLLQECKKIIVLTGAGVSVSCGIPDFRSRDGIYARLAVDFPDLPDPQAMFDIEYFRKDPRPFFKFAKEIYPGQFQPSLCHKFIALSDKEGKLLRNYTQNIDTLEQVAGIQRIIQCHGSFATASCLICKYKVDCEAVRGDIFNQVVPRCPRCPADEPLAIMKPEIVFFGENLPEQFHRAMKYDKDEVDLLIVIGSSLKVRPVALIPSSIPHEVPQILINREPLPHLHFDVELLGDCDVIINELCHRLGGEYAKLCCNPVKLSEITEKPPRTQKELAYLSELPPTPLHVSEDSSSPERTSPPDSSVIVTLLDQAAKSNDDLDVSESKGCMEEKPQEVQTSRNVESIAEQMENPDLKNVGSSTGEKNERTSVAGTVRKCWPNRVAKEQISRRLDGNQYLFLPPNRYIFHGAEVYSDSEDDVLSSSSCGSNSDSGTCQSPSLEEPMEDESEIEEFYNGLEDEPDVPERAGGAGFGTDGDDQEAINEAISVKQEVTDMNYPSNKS
# sirtuin-1 [2] = conditions: quercetin produced from rutin in the body; J. Pharmacol. Sci., 2008, 108, 364-71
smiles,measurement,setting,value
O=C(/C=C/c1ccc(O)c(O)c1)O[C@@H]1C[C@](O)(C(=O)O)C[C@@H](O)[C@H]1O [chlorogenic acid],sirtuin-1 activating effect,"sirtuin-1 [1]; PLoS One, 2014, 9(2), e89166",no sirtuin-1 activating effect
COc1ccc([C@@H]2CC(=O)c3c(O)cc(O[C@@H]4O[C@H](CO[C@@H]5O[C@@H](C)[C@H](O)[C@@H](O)[C@H]5O)[C@@H](O)[C@H](O)[C@H]4O)cc3O2)cc1O [hesperidin],effect of activating sirtuin-1,"sirtuin-1 [1]; at 5 μM, Biosci. Biotechnol. Biochem., 2012, 76(4), 640-645",effect of activating sirtuin-1
O=c1c(O)c(-c2ccc(O)c(O)c2)oc2cc(O)cc(O)c12 [quercetin],sirtuin-1 expression inhibiting effect,sirtuin-1 [2],sirtuin-1 expression inhibiting effect
